# Literature values in patent US10024846B2, “Methods for treating diet-induced obesity by decreasing or inhibiting P2Y2 purinergic receptor expression or activity” (The United States of America as represented by the …, priority 2012, dated 2018).
# Experiments:
# P2Y2 receptor = settings: competitive P2Y2 receptor antagonists; values from cited literature
# rat P2Y4 receptor = rat P2Y4 receptor (Rattus norvegicus, UniProt O35811); settings: Herold et al. 2004
# human P2Y4 receptor = human P2Y4 receptor (Homo sapiens, UniProt P51582); settings: Herold et al. 2004
# human P2Y4 receptor, sequence (P51582 whole entry): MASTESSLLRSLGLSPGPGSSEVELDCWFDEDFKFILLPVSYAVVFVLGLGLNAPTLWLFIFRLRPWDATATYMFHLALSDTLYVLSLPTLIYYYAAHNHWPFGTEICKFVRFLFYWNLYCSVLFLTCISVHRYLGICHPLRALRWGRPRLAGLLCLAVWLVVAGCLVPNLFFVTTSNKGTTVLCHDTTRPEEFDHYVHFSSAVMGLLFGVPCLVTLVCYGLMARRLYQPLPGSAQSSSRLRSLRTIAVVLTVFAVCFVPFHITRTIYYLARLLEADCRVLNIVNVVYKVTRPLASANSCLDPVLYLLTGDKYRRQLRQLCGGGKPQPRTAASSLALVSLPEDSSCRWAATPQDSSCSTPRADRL
# rat P2Y4 receptor, sequence (O35811 whole entry): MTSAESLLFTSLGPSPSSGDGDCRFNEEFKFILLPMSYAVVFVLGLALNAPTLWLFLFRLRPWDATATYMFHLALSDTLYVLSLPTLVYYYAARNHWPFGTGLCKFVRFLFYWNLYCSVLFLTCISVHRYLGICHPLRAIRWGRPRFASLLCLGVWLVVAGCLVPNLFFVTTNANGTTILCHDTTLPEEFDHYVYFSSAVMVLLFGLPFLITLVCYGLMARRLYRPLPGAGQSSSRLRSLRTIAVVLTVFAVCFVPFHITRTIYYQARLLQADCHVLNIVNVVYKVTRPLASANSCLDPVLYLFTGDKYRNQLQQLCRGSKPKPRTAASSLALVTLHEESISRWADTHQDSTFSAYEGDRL
Structure (SMILES),IC50 (P2Y2 receptor) [µM],agonist versus antagonist action at the P2Y4 receptor (rat P2Y4 receptor),agonist versus antagonist action at the P2Y4 receptor (human P2Y4 receptor)
Cn1cc(C2c3ccc(Cl)cc3C=Cc3scnc32)c(=S)[nH]c1=O (stereo not shown) [AR-C126313],~6,,
Cc1ccc2c(c1)C=Cc1cc(C)ccc1C2c1cn(Cc2ccc(C(=O)Nc3nnn[nH]3)o2)c(=O)[nH]c1=S [AR-C118925],~6,,
Nc1ncnc2c1ncn2[C@@H]1O[C@H](COP(=O)(O)OP(=O)(O)OP(=O)(O)O)[C@@H](O)[C@H]1O [ATP],,potent full agonist,potent competitive antagonist
